Measurements: ChEMBL document CHEMBL3352522 (Bioorg Med Chem Lett, 2014)
Active and inactive are the calls of the source. The rule behind the calls is not given here.

Key:
[1] = target: T1, Peroxisome proliferator-activated receptor alpha (Homo sapiens) (UniProt Q07869); assay: Activation of human PPARalpha ligand binding domain expressed in COS7 cells by luciferase reporter gene assay relative to GW7647; type: cell-based; design: concentration or dose not given beside the values; conditions: COS-7
T1 sequence (whole entry): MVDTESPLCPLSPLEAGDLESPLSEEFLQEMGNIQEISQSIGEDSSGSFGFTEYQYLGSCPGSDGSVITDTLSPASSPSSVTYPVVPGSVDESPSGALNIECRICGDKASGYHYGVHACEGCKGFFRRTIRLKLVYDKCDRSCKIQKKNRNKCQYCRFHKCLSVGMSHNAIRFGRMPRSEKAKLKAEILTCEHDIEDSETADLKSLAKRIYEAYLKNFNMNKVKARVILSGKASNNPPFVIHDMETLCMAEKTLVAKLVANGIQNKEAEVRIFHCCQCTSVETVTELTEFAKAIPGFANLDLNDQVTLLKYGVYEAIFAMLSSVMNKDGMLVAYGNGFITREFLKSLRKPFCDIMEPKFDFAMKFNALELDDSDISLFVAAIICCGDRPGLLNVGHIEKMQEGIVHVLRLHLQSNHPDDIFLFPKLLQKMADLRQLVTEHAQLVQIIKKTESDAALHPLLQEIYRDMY

[2] = target: T2, Peroxisome proliferator-activated receptor delta (Homo sapiens) (UniProt Q03181); assay: Activation of human PPARbeta ligand binding domain expressed in COS7 cells assessed as residual activity at 10 uM by luciferase reporter gene assay; type: cell-based; conditions: COS-7
T2 sequence (whole entry): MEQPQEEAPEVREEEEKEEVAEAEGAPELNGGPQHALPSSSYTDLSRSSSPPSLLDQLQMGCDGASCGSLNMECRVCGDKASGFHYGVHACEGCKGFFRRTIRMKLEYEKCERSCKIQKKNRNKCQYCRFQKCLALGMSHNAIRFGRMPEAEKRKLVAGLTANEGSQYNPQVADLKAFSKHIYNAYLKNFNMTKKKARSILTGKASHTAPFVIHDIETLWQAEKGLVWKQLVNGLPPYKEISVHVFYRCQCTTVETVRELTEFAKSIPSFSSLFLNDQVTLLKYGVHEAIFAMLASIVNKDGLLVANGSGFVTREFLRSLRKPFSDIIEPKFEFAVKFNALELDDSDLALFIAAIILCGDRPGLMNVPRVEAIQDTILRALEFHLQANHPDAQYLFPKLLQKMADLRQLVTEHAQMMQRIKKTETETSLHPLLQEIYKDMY

[3] = target: T3, Peroxisome proliferator-activated receptor alpha (Homo sapiens, UniProt Q07869); assay: Activation of human PPARalpha ligand binding domain expressed in COS7 cells by luciferase reporter gene assay; type: cell-based, COS-7
T3 sequence (Q07869 whole entry): T1 sequence (whole entry)

[4] = target: T4, Peroxisome proliferator-activated receptor gamma (Homo sapiens) (UniProt P37231); assay: Activation of human PPARgamma ligand binding domain expressed in COS7 cells by luciferase reporter gene assay relative to pioglitazone; type: cell-based; design: concentration or dose not given beside the values; conditions: COS-7
T4 sequence (whole entry): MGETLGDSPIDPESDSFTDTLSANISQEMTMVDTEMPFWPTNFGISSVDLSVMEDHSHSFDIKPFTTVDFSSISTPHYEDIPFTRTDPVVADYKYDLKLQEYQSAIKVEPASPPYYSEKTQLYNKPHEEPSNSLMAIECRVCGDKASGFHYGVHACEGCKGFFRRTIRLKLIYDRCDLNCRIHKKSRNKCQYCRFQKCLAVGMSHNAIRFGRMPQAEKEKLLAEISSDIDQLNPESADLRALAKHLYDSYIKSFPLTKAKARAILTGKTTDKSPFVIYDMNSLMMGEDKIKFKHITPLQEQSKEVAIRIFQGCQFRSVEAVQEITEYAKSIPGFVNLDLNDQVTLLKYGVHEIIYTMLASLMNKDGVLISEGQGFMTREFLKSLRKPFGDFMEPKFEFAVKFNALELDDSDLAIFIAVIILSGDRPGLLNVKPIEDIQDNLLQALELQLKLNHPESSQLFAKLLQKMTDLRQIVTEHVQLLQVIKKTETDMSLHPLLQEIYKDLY

[5] = target: T5, Peroxisome proliferator-activated receptor gamma (Homo sapiens, UniProt P37231); assay: Activation of human PPARgamma ligand binding domain expressed in COS7 cells by luciferase reporter gene assay; type: cell-based, COS-7
T5 sequence (P37231 whole entry): T4 sequence (whole entry)

[6] = target: T1, Peroxisome proliferator-activated receptor alpha (Homo sapiens); assay: Activation of human PPARalpha ligand binding domain expressed in COS7 cells assessed as residual activity at 6 uM by luciferase reporter gene assay relative to GW7647; type: cell-based; conditions: COS-7
[7] = target: T2, Peroxisome proliferator-activated receptor delta (Homo sapiens); assay: Activation of human PPARbeta ligand binding domain expressed in COS7 cells assessed as residual activity at 3 uM by luciferase reporter gene assay; type: cell-based; conditions: COS-7
[8] = target: T4, Peroxisome proliferator-activated receptor gamma (Homo sapiens); assay: Activation of human PPARgamma ligand binding domain expressed in COS7 cells assessed as residual activity at 10 uM by luciferase reporter gene assay relative to pioglitazone; type: cell-based; conditions: COS-7
Prostaglandin E synthase = target: T6, Prostaglandin E synthase (Homo sapiens, UniProt O14684); assay: Inhibition of mPGES-1 in human A549 cells microsomes assessed as reduction in PGE2 formation by RP-HPLC assay; type: cell-based
T6 sequence (O14684 whole entry): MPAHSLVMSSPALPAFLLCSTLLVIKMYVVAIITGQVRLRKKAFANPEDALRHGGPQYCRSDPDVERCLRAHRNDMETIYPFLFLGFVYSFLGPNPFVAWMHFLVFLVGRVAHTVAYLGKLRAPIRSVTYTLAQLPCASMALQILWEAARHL

[9] = target: T7, Polyunsaturated fatty acid 5-lipoxygenase (Homo sapiens, UniProt P09917); assay: Inhibition of 5-LOX in human PMNL cells assessed as reduction in 5-LOX product formation pre-incubated for 15 mins by HPLC based cell-free assay
T7 sequence (P09917 whole entry): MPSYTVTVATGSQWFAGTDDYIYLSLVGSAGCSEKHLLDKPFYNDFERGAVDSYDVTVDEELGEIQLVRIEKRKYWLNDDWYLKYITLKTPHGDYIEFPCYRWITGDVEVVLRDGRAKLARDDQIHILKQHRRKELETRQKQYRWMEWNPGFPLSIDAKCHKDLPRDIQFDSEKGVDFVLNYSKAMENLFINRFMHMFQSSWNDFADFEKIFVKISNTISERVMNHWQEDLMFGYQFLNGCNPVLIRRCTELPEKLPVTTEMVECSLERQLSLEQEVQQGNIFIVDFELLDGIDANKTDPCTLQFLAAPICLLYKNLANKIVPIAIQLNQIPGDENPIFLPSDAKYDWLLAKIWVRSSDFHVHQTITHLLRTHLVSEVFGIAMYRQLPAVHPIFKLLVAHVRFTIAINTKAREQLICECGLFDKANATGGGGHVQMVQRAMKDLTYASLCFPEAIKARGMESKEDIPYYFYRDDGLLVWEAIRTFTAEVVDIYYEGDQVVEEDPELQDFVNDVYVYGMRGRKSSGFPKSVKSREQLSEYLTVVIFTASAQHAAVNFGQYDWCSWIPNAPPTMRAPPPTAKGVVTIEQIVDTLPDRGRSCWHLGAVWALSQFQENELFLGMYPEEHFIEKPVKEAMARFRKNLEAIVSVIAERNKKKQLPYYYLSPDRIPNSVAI

[10] = target: T1, Peroxisome proliferator-activated receptor alpha (Homo sapiens); assay: Activation of human PPARalpha ligand binding domain expressed in COS7 cells assessed as residual activity at 10 uM by luciferase reporter gene assay relative to GW7647; type: cell-based; conditions: COS-7
[11] = target: T7, Polyunsaturated fatty acid 5-lipoxygenase; assay: Inhibition of 5-LOX in human PMNL cells assessed as reduction in 5-LOX product formation pre-incubated for 15 mins by HPLC method; type: cell-based
[12] = target: T1, Peroxisome proliferator-activated receptor alpha (Homo sapiens); assay: Activation of human PPARalpha ligand binding domain expressed in COS7 cells assessed as residual activity at 3 uM by luciferase reporter gene assay relative to GW7647; type: cell-based; conditions: COS-7

SMILES | Activity [1] | Activity [2] | EC50 [3] | Activity [4] | EC50 [5] | further results
CCCCC(Sc1nc(Cl)cc(Nc2nc(-c3ccc(Cl)cc3)cs2)n1)C(=O)O (centres undefined) | 57% | inactive | 6.5 µM | 136% | 7.6 µM | 
CCCCCCC(Sc1nc(Cl)cc(Nc2nc(-c3ccccc3)c(C)s2)n1)C(=O)O (centres undefined) |  | inactive |  | 99% | 2.3 µM | Activity [6]: 23%
CCCCCCC(Sc1nc(Cl)cc(Nc2nc(-c3ccc(F)c(F)c3)cs2)n1)C(=O)O (centres undefined) | 70% | inactive | 5.7 µM | 94% | 2.9 µM | 
CCCCCCC(Sc1nc(Cl)cc(Nc2nc(-c3ccccc3)cs2)n1)C(=O)O (centres undefined) |  | inactive |  | 108% | 5.7 µM | Activity [6]: 55.4%
CCCCCCC(Sc1nc(Cl)cc(Nc2nc3c(s2)CCc2cc(OC)ccc2-3)n1)C(=O)O (centres undefined) | 229% |  | 5.4 µM | 86% | 3.7 µM | Activity [7]: inactive
CCCCCCC(Sc1nc(Cl)cc(Nc2nc(-c3ccc(C(=O)O)cc3)cs2)n1)C(=O)O (centres undefined) |  | inactive |  |  |  | Activity [8]: inactive; IC50 (Prostaglandin E synthase): > 10 µM; IC50 [9]: > 10 µM; Activity [10]: inactive; IC50 [11]: > 10 µM
CCCCCCC(Sc1nc(Cl)cc(Nc2nc(-c3ccc(C)cc3)cs2)n1)C(=O)O (centres undefined) | 125% | inactive | 8.2 µM | 139% | 7.2 µM | 
Cc1cccc(Nc2cc(Cl)nc(SC(C(=O)O)c3cccc4ccccc34)n2)c1C (centres undefined) |  |  |  |  |  | inhibition [10]: inactive; IC50 [5]: 6.2 µM
CCCCCCC(Sc1nc(Cl)cc(Nc2nc(-c3ccc([N+](=O)[O-])cc3)cs2)n1)C(=O)O (centres undefined) | 89.4% | inactive | 2.9 µM | 130% | 3.4 µM | 
CCCCCCC(Sc1nc(Cl)cc(Nc2nc(-c3ccc4ccccc4c3)cs2)n1)C(=O)O (centres undefined) |  | inactive |  | 78% | 1.3 µM | Activity [6]: 37%
CCC(Sc1nc(Cl)cc(Nc2nc(-c3ccc(Cl)cc3)cs2)n1)C(=O)O (centres undefined) | 51% | inactive | 3.6 µM | 95% | 3.9 µM | 
O=C(O)CSc1nc(Cl)cc(Nc2nc(-c3ccc(Cl)cc3)cs2)n1 |  | inactive |  |  |  | Activity [8]: 63%; Activity [10]: 24.7%
CCCCCCC(Sc1nc(Cl)cc(Nc2ccc3ncccc3c2)n1)C(=O)O (centres undefined) |  |  |  |  |  | IC50 [3]: 2.2 µM; IC50 [5]: 3.5 µM
CCCCCCC(Sc1nc(Cl)cc(Nc2nc(-c3ccc(F)cc3F)cs2)n1)C(=O)O (centres undefined) |  | inactive |  | 145% | 3.6 µM | Activity [10]: 18%
CCCCCCC(Sc1nc(Cl)cc(Nc2ccc(-c3ccc(C#N)cc3)cc2)n1)C(=O)O (centres undefined) |  |  |  |  |  | IC50 [3]: 0.19 µM; IC50 [5]: 1.5 µM
CCCCCCC(Sc1nc(Cl)cc(Nc2nc(-c3ccc(Br)cc3)c(C)s2)n1)C(=O)O (centres undefined) | 102% |  | 3.9 µM | 144% | 3.8 µM | Activity [7]: inactive
CCCCCCC(Sc1nc(Cl)cc(Nc2nc(-c3ccc4c(c3)CCCC4)cs2)n1)C(=O)O (centres undefined) |  |  |  | 107% | 4.1 µM | Activity [7]: inactive; Activity [12]: 52.9%
CCCCCCC(Sc1nc(Cl)cc(Nc2cccc(C)c2C)n1)C(=O)O (centres undefined) |  |  |  |  |  | IC50 [3]: 1 µM; IC50 [5]: 3.6 µM
O=C(O)CSc1nc(OCCc2ccccc2)cc(OCCc2ccccc2)n1 |  |  |  |  |  | inhibition [10]: inactive; IC50 [5]: 3.7 µM
CCCCCCC(Sc1nc(Cl)cc(Nc2nc(-c3ccc(Cl)cc3)cs2)n1)C(=O)O (centres undefined) | 57% | inactive | 6.6 µM | 90% | 6.4 µM | 
